The text below walks through data of paper PMC10674476, “Development of a Novel In Vitro Model to Study Lymphatic Uptake of Drugs via Artificial Chylomicrons” (Pharmaceutics, 2023).

The conditions of series [1]: cited from earlier work; for Density: ref ChemBK **, ChemSpider ***, # drugfuture.com, ## chemsrc.com; for PSA (polar surface area): ref DrugBank, in Å2 (unit assumed).
Details of series [2]: method as in PMID 32785853. Particulars: Sprague-Dawley rats, cited from earlier work.
Details of series [3]: method as in PMID 32785853, PMID 29109461. Particulars: cited from earlier work.
Series [4] is described as follows: In vitro lymphatic uptake model (Franz cell, Intralipid receiver, octanol-impregnated PVDF membrane). The following applies: 37 °C, 0–4 h, rank among the four tested drugs. On the procedure:
The Franz Cell receiver compartment was filled with 12 mL of either Intralipid® or Intralipid® mixed with a potential inhibitor or enhancer and maintained at 37.0 ± 0.5 °C with magnetic stirring at 600 rpm, as shown in Figure 2. A synthetic 0.22 µm Polyvinylidene Fluoride (PVDF) membrane impregnated with octanol was placed between compartments. […] Two mL solutions of the model drugs were added to the donor compartment with the receiver compartment containing either Intralipid® or Intralipid® mixed with an enhancer or an inhibitor. At different time intervals (0–4 h), 0.2 mL samples were withdrawn, extracted, and analyzed for drug content using HPLC with a C18 column (150 mm × 4.6 mm i.d., 5 µm).
Therefore, this in vitro model was developed to replicate this in vivo process. Since certain lipophilic drugs are taken up from the intestinal lumen into enterocytes and subsequently enclosed within chylomicrons, the developed model was designed to include a donor compartment, resembling the intestinal lumen, where the drug solution is placed. Additionally, there was a receiver compartment that contains an artificial chylomicron medium, simulating the environment within enterocytes. These two compartments were separated by an octanol-immersed membrane, which served as a representation of the lipophilic cell membrane found in enterocytes (Figure 2).

The conditions of series [5]: lipidic vehicles, lymph-cannulated rats; cited from earlier work.
For series [6] the following is noted: long-chain triglyceride formulation; cited from earlier work.
Details of series [7]: method as in PMID 23200408. Particulars: intraduodenal, thoracic duct-cannulated rats; cited from earlier work.
Details of series [8]: method as in PMID 19916501. Particulars: 30 mg/kg intraduodenal, mesenteric-cannulated rat; cited from earlier work.
For series [9] the following is noted: oral; cited from earlier work.

One may read the LogP as a log measure of how a compound divides between an organic and an aqueous phase. For orientation: pKa means the pH at which an ionisable group is half protonated.

Read-outs that look alike come from different tables or passages of the source. Marks after values point to notes of the source that are not given here.

In the case of `C=C(C)[C@@H]1CCC(C)=C[C@H]1c1c(O)cc(CCCCC)cc1O` [Cannabidiol, cannabidiol], in series [1], the Density is recorded as 1.04 ^# g/cm^3 and the “PSA (polar surface area)” value was 40.46 *. In series [1] (ref PubChem (* DrugBank)), the “HBA (hydrogen-binding acceptors)” value was 2 *, the “HBD (hydrogen binding donors)” value was 2 * and the LogP is given as 6.3 *. The “increase in systemic exposure with lipids versus lipid-free formulations” value in [2] is reported as “factor of three”. In [2] (listed as CBD), the “increase in systemic exposure with lipids versus lipid-free formulations” value was “three-fold increase”. Also, in series [3], the “increase in plasma concentration with sesame oil” value is on record as 250 fold and the “increase in systemic exposure with sesame oil” value is listed as 2.8 fold. In addition, the “lymphatic uptake (release into the receiver compartment)” value (shortened to “lymphatic uptake”) in [4] is on record as “moderate efficiency”.
Take `CCCCN(CCCC)CCC(O)c1cc2c(Cl)cc(Cl)cc2c2cc(C(F)(F)F)ccc12` (stereo not drawn) [Halofantrine]: in series [1], the Density was 1.2 *** g/cm^3 and the “PSA (polar surface area)” value is recorded as 23.5 *. Besides, in series [1] (ref PubChem (* DrugBank)), the “HBA (hydrogen-binding acceptors)” value is 5, the “HBD (hydrogen binding donors)” value was 1, the LogP is 8.9 and the pKa is reported as 14.47. The total systemic exposure in series [5] was 22.7 % of the administered dose. For the same compound, the total bioavailability in series [6] was 19.1%.
Take `O=c1c(O)c(-c2ccc(O)c(O)c2)oc2cc(O)cc(O)c12` [Quercetin, quercetin]: in series [1], the Density is 1.8 ^## g/cm^3 and the “PSA (polar surface area)” value is given as 127.45 *. Besides, in series [1] (ref PubChem (* DrugBank)), the “HBA (hydrogen-binding acceptors)” value is on record as 7, the “HBD (hydrogen binding donors)” value was 5 and the LogP was 1.48. The “transport through the lymphatic system with soybean oil” value in series [7] is “notably improved”. Moreover, the “Cmax in the lymph relative to plasma” value in series [8] is “approximately five times higher”. Further, the “lymphatic uptake” value in [4] is reported as “moderate efficiency”.
Regarding `CO[C@H]1/C=C/O[C@@]2(C)Oc3c(C)c(O)c4c(O)c(c(/C=N/N5CCN(C)CC5)c(O)c4c3C2=O)NC(=O)/C(C)=C\C=C\[C@H](C)[C@H](O)[C@@H](C)[C@@H](O)[C@@H](C)[C@H](OC(C)=O)[C@@H]1C` [Rifampicin, rifampicin], in [1], the Density is 1.178 ** g/cm^3 and the “PSA (polar surface area)” value is given as 220.15 *. Also, in series [1] (ref PubChem (* DrugBank)), the “HBA (hydrogen-binding acceptors)” value is 15, the “HBD (hydrogen binding donors)” value was 6 and the lipophilicity (LogP) is listed as 4.9. For the same compound, in [4], the “lymphatic uptake” value was “least available”.
For `CCCCCCCCCCC(=O)O[C@H]1CC[C@H]2[C@@H]3CCC4=CC(=O)CC[C@]4(C)[C@H]3CC[C@]12C` [testosterone undecanoate], the “systemic exposure compared to testosterone administration” value in series [9] was “higher systemic exposure”.
